Experimental data: ChEMBL document CHEMBL1201862, “PubChem BioAssay data set” (2004)
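Briefly, cells in 96-well plates were exposed to five compound concentrations for 48 h, and endpoints were estimated by linear interpolation. The concentration for 50% growth inhibition is given as GI50.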 Active and inactive are the calls of the source. No stated cut-off is given here; in the data, active = GI50 up to about 1.1 µM and inactive = higher.

Columns and labels:
Test in all cases: NCI tumour cell line growth inhibition, 48 h
RPMI-8226 = tested on: RPMI-8226
786-0 = tested on: 786-0
UACC-257 = tested on: UACC-257
IGROV-1 = tested on: IGROV-1
SK-MEL-2 = tested on: SK-MEL-2
HT-29 = tested on: HT-29
SN12C = tested on: SN12C
KM12 = tested on: KM12
MDA-MB-231 = tested on: MDA-MB-231
TK-10 = tested on: TK-10
NCI-H460 = tested on: NCI-H460
OVCAR-5 = tested on: OVCAR-5
A549 = tested on: A549
UO-31 = tested on: UO-31
OVCAR-8 = tested on: OVCAR-8
NCI/ADR-RES = tested on: NCI/ADR-RES
HOP-62 = tested on: HOP-62
M14 = tested on: M14
BT-549 = tested on: BT-549
OVCAR-3 = tested on: OVCAR-3
HCT-116 = tested on: HCT-116
MDA-N = tested on: MDA-N
U-251 = tested on: U-251
DU-145 = tested on: DU-145
SK-MEL-28 = tested on: SK-MEL-28
NCI-H23 = tested on: NCI-H23
HCT-15 = tested on: HCT-15
CCRF-CEM = tested on: CCRF-CEM
ACHN = tested on: ACHN
HOP-92 = tested on: HOP-92
T47D = tested on: T47D
Malme-3M = tested on: Malme-3M
RXF 393 = tested on: RXF 393
NCI-H522 = tested on: NCI-H522
SK-MEL-5 = tested on: SK-MEL-5
UACC-62 = tested on: UACC-62
SF-295 = tested on: SF-295
LOX IMVI = tested on: LOX IMVI
HL-60 = tested on: HL-60
MDA-MB-435 = tested on: MDA-MB-435
EKVX = tested on: EKVX
CAKI-1 = tested on: CAKI-1
MCF7 = tested on: MCF7
A498 = tested on: A498
OVCAR-4 = tested on: OVCAR-4
MOLT-4 = tested on: MOLT-4
COLO 205 = tested on: COLO 205
PC-3 = tested on: PC-3
K562 = tested on: K562
SNB-19 = tested on: SNB-19
NCI-H226 = tested on: NCI-H226
SW-620 = tested on: SW-620

What does the source list for `NC(=S)Nc1ccc(S(=O)(=O)Nc2ccc(S(N)(=O)=O)cc2)cc1`?
GI50 (RPMI-8226): > 100 µM (inactive); GI50 (786-0): > 100 µM (inactive); GI50 (UACC-257): > 100 µM (inactive); GI50 (IGROV-1): > 100 µM (inactive); GI50 (SK-MEL-2): > 100 µM (inactive); GI50 (HT-29): > 100 µM (inactive); GI50 (SN12C): > 100 µM (inactive); GI50 (KM12): > 100 µM (inactive); GI50 (MDA-MB-231): > 100 µM (inactive); GI50 (TK-10): > 100 µM (inactive); GI50 (NCI-H460): > 100 µM (inactive); GI50 (OVCAR-5): > 100 µM (inactive); GI50 (A549): > 100 µM (inactive); GI50 (UO-31): > 100 µM (inactive); GI50 (OVCAR-8): > 100 µM (inactive); GI50 (NCI/ADR-RES): > 100 µM (inactive); GI50 (HOP-62): > 100 µM (inactive); GI50 (M14): > 100 µM (inactive); GI50 (BT-549): > 100 µM (inactive); GI50 (OVCAR-3): > 100 µM (inactive); GI50 (HCT-116): > 100 µM (inactive); GI50 (MDA-N): > 100 µM (inactive); GI50 (U-251): > 100 µM (inactive); GI50 (DU-145): > 100 µM (inactive); GI50 (SK-MEL-28): > 100 µM (inactive); GI50 (NCI-H23): > 100 µM (inactive); GI50 (HCT-15): > 100 µM; GI50 (CCRF-CEM): > 100 µM (inactive); GI50 (ACHN): > 100 µM (inactive); GI50 (HOP-92): > 100 µM (inactive); GI50 (T47D): > 100 µM (inactive); GI50 (Malme-3M): > 100 µM (inactive); GI50 (RXF 393): > 100 µM (inactive); GI50 (NCI-H522): > 100 µM (inactive); GI50 (SK-MEL-5): > 100 µM (inactive); GI50 (UACC-62): > 100 µM (inactive); GI50 (SF-295): > 100 µM (inactive); GI50 (LOX IMVI): > 100 µM (inactive); GI50 (HL-60): > 100 µM (inactive); GI50 (MDA-MB-435): > 100 µM (inactive); GI50 (EKVX): > 100 µM (inactive); GI50 (CAKI-1): > 100 µM (inactive); GI50 (MCF7): > 100 µM (inactive); GI50 (A498): > 100 µM (inactive); GI50 (OVCAR-4): > 100 µM (inactive); GI50 (MOLT-4): > 100 µM (inactive); GI50 (COLO 205): > 100 µM (inactive); GI50 (PC-3): > 100 µM (inactive); GI50 (K562): > 100 µM (inactive); GI50 (SNB-19): > 100 µM (inactive); GI50 (NCI-H226): > 100 µM (inactive); GI50 (SW-620): > 100 µM (inactive)
